Ki data for 52 molecules are collected here from patent publication US8063220B2, “Sulfonyl-quinoline derivatives” (Richter Gedeon Nyrt., priority 2007, dated 2011).

One test concerns the target T1, rat mGluR5 (Rattus norvegicus, UniProt P31424).
T1 construct: Rat cerebro-cortical membrane preparation was used; from tissue; host or cells: rat cerebral cortex (membrane preparation)
Description: MGluR5 receptor binding test ([3H]-M-MPEP displacement, rat cerebro-cortical membrane preparation). The conditions noted are these: rat mGluR5, [3H]-M-MPEP 2 nM; read-out: mGlu5 Ki. The protocol: Rat cerebro-cortical membrane preparation was used to determine the binding characteristics of reference compounds and novel compounds to the rat mGluR5. The A18 cell line expressing hmGluR5a (purchased from Euroscreen) was used to determine binding characteristics of the chemical compounds to the human mGluR5a receptor. [3H]-M-MPEP (2 nM) was used as radioligand. The nonspecific binding was determined in the presence of 10 μM M-MPEP.

For a further test, the target named is T2, rat mGluR1 (Rattus norvegicus, UniProt P23385).
T2 construct: rat cerebellar membrane preparation was used; from tissue; host or cells: rat cerebellum (membrane preparation)
T2 sequence (P23385 19-1199): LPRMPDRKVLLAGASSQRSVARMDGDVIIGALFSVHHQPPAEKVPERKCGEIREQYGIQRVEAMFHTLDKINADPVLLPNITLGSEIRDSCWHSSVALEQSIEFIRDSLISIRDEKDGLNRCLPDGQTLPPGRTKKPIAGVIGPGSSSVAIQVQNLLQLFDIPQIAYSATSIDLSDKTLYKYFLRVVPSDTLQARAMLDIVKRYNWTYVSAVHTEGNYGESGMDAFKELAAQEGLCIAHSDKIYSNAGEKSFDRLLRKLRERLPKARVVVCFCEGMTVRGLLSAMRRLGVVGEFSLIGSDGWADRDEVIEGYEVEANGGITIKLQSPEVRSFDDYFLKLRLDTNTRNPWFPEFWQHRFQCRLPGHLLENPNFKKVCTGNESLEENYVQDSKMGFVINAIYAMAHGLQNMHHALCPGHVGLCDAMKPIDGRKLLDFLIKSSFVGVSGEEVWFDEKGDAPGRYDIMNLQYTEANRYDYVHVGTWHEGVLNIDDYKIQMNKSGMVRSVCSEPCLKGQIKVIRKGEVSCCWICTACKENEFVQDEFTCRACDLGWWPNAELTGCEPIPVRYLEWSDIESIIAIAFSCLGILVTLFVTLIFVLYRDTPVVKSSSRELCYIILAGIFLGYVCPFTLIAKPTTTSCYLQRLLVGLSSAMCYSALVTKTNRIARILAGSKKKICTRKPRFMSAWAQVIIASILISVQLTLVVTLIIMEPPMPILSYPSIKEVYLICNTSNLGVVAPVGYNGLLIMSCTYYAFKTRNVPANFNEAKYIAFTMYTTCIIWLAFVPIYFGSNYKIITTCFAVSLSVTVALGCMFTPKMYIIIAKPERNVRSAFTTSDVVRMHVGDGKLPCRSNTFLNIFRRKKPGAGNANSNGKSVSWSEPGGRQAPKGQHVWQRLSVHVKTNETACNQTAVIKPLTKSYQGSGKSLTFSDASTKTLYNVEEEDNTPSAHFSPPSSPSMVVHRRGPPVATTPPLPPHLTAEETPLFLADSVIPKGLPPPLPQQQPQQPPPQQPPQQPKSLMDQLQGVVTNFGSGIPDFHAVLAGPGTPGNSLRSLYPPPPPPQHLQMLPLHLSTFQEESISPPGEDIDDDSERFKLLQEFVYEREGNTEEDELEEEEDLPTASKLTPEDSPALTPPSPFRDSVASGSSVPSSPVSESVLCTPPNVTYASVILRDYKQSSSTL
Description: MGluR1 receptor binding test ([3H]R214127 displacement, rat cerebellar membrane preparation). To be noted: rat mGluR1, [3H]R214127 3 nM; read-out: mGlu1 Ki. The method in brief:
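Rat cerebellar membranes with 3 nM [3H]R214127; nonspecific binding defined by 1 μM R214127. IC50 from displacement curves by nonlinear regression, converted to Ki by Cheng–Prusoff.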

Structures are written as SMILES.

T1 sequence (P31424 21-1203): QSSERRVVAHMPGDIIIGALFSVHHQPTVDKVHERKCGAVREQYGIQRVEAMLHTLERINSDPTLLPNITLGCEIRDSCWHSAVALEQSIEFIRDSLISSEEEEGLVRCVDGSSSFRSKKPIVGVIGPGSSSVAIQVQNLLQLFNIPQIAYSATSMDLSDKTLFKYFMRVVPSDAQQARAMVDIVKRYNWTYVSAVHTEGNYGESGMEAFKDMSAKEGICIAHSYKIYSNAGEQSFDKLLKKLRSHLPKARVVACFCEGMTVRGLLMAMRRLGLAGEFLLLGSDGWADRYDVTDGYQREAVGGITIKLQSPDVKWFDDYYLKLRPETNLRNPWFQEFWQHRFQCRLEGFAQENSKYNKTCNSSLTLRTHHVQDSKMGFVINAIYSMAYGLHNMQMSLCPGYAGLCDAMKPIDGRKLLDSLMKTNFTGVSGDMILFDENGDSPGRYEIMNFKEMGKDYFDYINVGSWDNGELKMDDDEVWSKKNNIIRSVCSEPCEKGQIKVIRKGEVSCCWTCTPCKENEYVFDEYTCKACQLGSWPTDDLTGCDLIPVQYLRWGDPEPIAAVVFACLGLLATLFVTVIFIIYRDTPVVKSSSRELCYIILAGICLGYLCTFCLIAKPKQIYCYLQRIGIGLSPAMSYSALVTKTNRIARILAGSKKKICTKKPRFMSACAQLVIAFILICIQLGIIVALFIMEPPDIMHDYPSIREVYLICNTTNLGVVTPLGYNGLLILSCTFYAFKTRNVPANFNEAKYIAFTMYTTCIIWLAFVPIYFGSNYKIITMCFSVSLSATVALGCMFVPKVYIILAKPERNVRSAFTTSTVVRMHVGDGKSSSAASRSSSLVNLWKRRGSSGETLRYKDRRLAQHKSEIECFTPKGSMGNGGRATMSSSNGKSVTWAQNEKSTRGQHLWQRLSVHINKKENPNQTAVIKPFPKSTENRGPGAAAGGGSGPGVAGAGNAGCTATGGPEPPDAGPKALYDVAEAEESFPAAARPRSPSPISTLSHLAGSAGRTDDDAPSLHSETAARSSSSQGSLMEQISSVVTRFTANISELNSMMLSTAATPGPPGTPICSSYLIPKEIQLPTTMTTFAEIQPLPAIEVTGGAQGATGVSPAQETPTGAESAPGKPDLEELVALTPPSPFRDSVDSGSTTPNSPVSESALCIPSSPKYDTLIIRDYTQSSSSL

Consider `COc1cccc(S(=O)(=O)c2cnc3ccc(F)cc3c2-c2ccc(Cl)cc2)c1` [Compound 144], for which the values for the Ki on rat mGluR5 and on rat mGluR1 were below 200 nM and above 500 nM, respectively.
Regarding `COc1ccc(-c2c(S(=O)(=O)c3cccc(OC)c3)cnc3ccc(F)cc23)cc1` [Compound 145], the values for the Ki at rat mGluR5 and at rat mGluR1 were below 200 nM and above 500 nM, respectively.
On to `Cc1ccc(S(=O)(=O)c2cnc3ccc(F)cc3c2-c2cccc(F)c2)cc1C` [Compound 146], for which the inhibitory constant (Ki) was below 200 nM at rat mGluR5 and above 500 nM at rat mGluR1.
In the case of `COc1ccc(-c2c(S(=O)(=O)c3ccc(C)c(C)c3)cnc3ccc(F)cc23)cc1` [Compound 147], the results for the inhibition constant Ki at rat mGluR5 and on rat mGluR1 were below 200 nM and above 500 nM, respectively.
Turning to `Cc1ccc(S(=O)(=O)c2cnc3ccc(F)cc3c2-c2ccc(F)cc2)cc1C` [Compound 148], the figures for the Ki on rat mGluR5 and at rat mGluR1 were below 200 nM and above 500 nM, respectively.
On to `O=S(=O)(c1ccc(F)c(F)c1)c1cnc2ccc(F)cc2c1-c1cccc(Cl)c1` [Compound 149], for which the Ki on rat mGluR5 and on rat mGluR1 was 200 to 500 nM throughout.
For `O=S(=O)(c1ccc(F)c(F)c1)c1cnc2ccc(F)cc2c1-c1cccc(F)c1` [Compound 150], the Ki on rat mGluR5 was below 200 nM; on rat mGluR1, 200 to 500 nM.
For the molecule `COc1cccc(-c2c(S(=O)(=O)c3ccc(F)c(F)c3)cnc3ccc(F)cc23)c1` [Compound 151], the Ki on rat mGluR5 is 200 to 500 nM; at rat mGluR1, above 500 nM.
As to `O=S(=O)(c1ccc(F)c(F)c1)c1cnc2ccc(F)cc2c1-c1ccc(F)cc1` [Compound 152], the values for the Ki at rat mGluR5 and at rat mGluR1 were below 200 nM and 200 to 500 nM, respectively.
Take `O=S(=O)(c1ccc(F)c(Cl)c1)c1cnc2ccc(F)cc2c1-c1ccc(Cl)cc1` [Compound 153]: the Ki at rat mGluR5 was below 200 nM; at rat mGluR1, 200 to 500 nM.
In the case of `COc1cccc(-c2c(S(=O)(=O)c3ccc(F)c(Cl)c3)cnc3ccc(F)cc23)c1` [Compound 154], the Ki at rat mGluR5 was below 200 nM; on rat mGluR1 it was above 500 nM.
Consider `O=S(=O)(c1ccc(F)c(Cl)c1)c1cnc2ccc(F)cc2c1-c1ccc(F)cc1` [Compound 155], for which the Ki is below 200 nM at rat mGluR5 and 200 to 500 nM on rat mGluR1.
The matching figures for `O=S(=O)(c1cc(Cl)cc(Cl)c1)c1cnc2cc(F)ccc2c1-c1cccc(Cl)c1` [Compound 156]: below 200 nM and 200 to 500 nM.
On to `O=S(=O)(c1cc(Cl)cc(Cl)c1)c1cnc2cc(F)ccc2c1-c1ccc(Cl)cc1` [Compound 157], for which the inhibitory constant (Ki) on rat mGluR5 is below 200 nM; on rat mGluR1, 200 to 500 nM.
For `O=S(=O)(c1cc(Cl)cc(Cl)c1)c1cnc2c(F)cccc2c1-c1cccc(Cl)c1` [Compound 158], the Ki on rat mGluR5 was below 200 nM; on rat mGluR1, 200 to 500 nM.
As to `O=S(=O)(c1cc(Cl)cc(Cl)c1)c1cnc2c(F)cccc2c1-c1ccc(Cl)cc1` [Compound 159], the Ki is below 200 nM at rat mGluR5 and 200 to 500 nM at rat mGluR1.
As for `O=S(=O)(c1cc(Cl)cc(Cl)c1)c1cnc2ccc(F)cc2c1-c1cccc(Cl)c1` [Compound 160], the results for the Ki at rat mGluR5 and on rat mGluR1 were below 200 nM and above 500 nM, respectively.
With `O=S(=O)(c1cc(Cl)cc(Cl)c1)c1cnc2ccc(F)cc2c1-c1ccc(Cl)cc1` [Compound 161], the Ki at rat mGluR5 is below 200 nM; on rat mGluR1 it was above 500 nM.
In the case of `COc1ccc(S(=O)(=O)c2cnc3cc(F)ccc3c2-c2cccc(Cl)c2)cc1OC` [Compound 162], the Ki on rat mGluR5 and on rat mGluR1 was above 500 nM throughout.
On to `COc1ccc(-c2c(S(=O)(=O)c3ccc(OC)cc3)cnc3ccc(F)cc23)cc1` [Compound 163], for which the inhibition constant (Ki) at rat mGluR5 was below 200 nM; on rat mGluR1, above 500 nM.
On to `COc1ccc(S(=O)(=O)c2cnc3ccc(F)cc3c2-c2ccc(Cl)cc2)cc1OC` [Compound 164], for which the Ki on rat mGluR5 and at rat mGluR1 was above 500 nM each time.
`COc1ccc(S(=O)(=O)c2cnc3ccc(F)cc3c2-c2ccc(F)cc2)cc1Cl` [Compound 165]: the Ki at rat mGluR5 and at rat mGluR1 was above 500 nM in each case.
`O=S(=O)(c1cc(Cl)cc(Cl)c1)c1cnc2cc(Cl)ccc2c1-c1cccc(F)c1` [Compound 166]: the inhibition constant (Ki) on rat mGluR5 is below 200 nM; on rat mGluR1 it was above 500 nM.
Regarding `O=S(=O)(c1ccc(F)cc1)c1cnc2cc(Cl)ccc2c1-c1cccc(F)c1` [Compound 167], the results for the Ki at rat mGluR5 and on rat mGluR1 were below 200 nM and above 500 nM, respectively.
`O=S(=O)(c1cccc(F)c1)c1cnc2cc(Cl)ccc2c1-c1cccc(F)c1` [Compound 168]: the Ki is below 200 nM at rat mGluR5 and above 500 nM at rat mGluR1.
Regarding `O=S(=O)(c1cc(F)cc(F)c1)c1cnc2cc(Cl)ccc2c1-c1cccc(F)c1` [Compound 169], the inhibition constant (Ki) is below 200 nM at rat mGluR5 and above 500 nM at rat mGluR1.
Consider `O=S(=O)(c1ccc(F)c(F)c1)c1cnc2cc(Cl)ccc2c1-c1cccc(F)c1` [Compound 170, 7-chloro-3-(3,4-difluoro-benzenesulfonyl)-4-(3-fluoro-phenyl)-quinoline], for which the inhibitory constant (Ki) on rat mGluR5 was below 200 nM; on rat mGluR1, above 500 nM.
Turning to `O=S(=O)(c1ccc(F)c(Cl)c1)c1cnc2cc(Cl)ccc2c1-c1cccc(F)c1` [Compound 171], the results for the inhibition constant Ki at rat mGluR5 and at rat mGluR1 were below 200 nM and above 500 nM, respectively.
Regarding `O=S(=O)(c1ccc(F)cc1)c1cnc2cc(Cl)ccc2c1-c1ccc(Cl)cc1` [Compound 172], the values for the Ki at rat mGluR5 and at rat mGluR1 were below 200 nM and above 500 nM, respectively.
On to `O=S(=O)(c1cccc(F)c1)c1cnc2cc(Cl)ccc2c1-c1ccc(Cl)cc1` [Compound 173], for which the Ki at rat mGluR5 is below 200 nM; on rat mGluR1, above 500 nM.
In the case of `O=S(=O)(c1cc(F)cc(F)c1)c1cnc2cc(Cl)ccc2c1-c1ccc(Cl)cc1` [Compound 174], the Ki at rat mGluR5 is below 200 nM; on rat mGluR1, above 500 nM.
For `O=S(=O)(c1ccc(F)c(F)c1)c1cnc2cc(Cl)ccc2c1-c1ccc(Cl)cc1` [Compound 175], the figures for the Ki on rat mGluR5 and on rat mGluR1 were below 200 nM and above 500 nM, respectively.
On to `O=S(=O)(c1ccc(F)c(Cl)c1)c1cnc2cc(Cl)ccc2c1-c1ccc(Cl)cc1` [Compound 176], for which the inhibitory constant (Ki) was below 200 nM on rat mGluR5 and above 500 nM at rat mGluR1.
With `N#Cc1cccc(S(=O)(=O)c2cnc3cc(Cl)ccc3c2-c2ccc(Cl)cc2)c1` [Compound 177], the inhibition constant Ki on rat mGluR5 is below 200 nM; at rat mGluR1 it was above 500 nM.
Turning to `O=S(=O)(c1cc(Cl)cc(Cl)c1)c1cnc2cc(Cl)ccc2c1-c1ccc(F)cc1` [Compound 178], the inhibition constant (Ki) on rat mGluR5 was below 200 nM; on rat mGluR1 it was above 500 nM.
As for `O=S(=O)(c1ccc(F)cc1)c1cnc2cc(Cl)ccc2c1-c1ccc(F)cc1` [Compound 179], the inhibitory constant (Ki) on rat mGluR5 was below 200 nM; on rat mGluR1, above 500 nM.
As for `O=S(=O)(c1cccc(F)c1)c1cnc2cc(Cl)ccc2c1-c1ccc(F)cc1` [Compound 180], the values for the Ki at rat mGluR5 and on rat mGluR1 were below 200 nM and above 500 nM, respectively.
For `O=S(=O)(c1cc(F)cc(F)c1)c1cnc2cc(Cl)ccc2c1-c1ccc(F)cc1` [Compound 181], the Ki on rat mGluR5 was below 200 nM; on rat mGluR1 it was above 500 nM.
Regarding `O=S(=O)(c1ccc(F)c(F)c1)c1cnc2cc(Cl)ccc2c1-c1ccc(F)cc1` [Compound 182], the inhibition constant Ki is below 200 nM at rat mGluR5 and above 500 nM at rat mGluR1.
Regarding `O=S(=O)(c1ccc(F)c(Cl)c1)c1cnc2cc(Cl)ccc2c1-c1ccc(F)cc1` [Compound 183], the Ki at rat mGluR5 is below 200 nM; on rat mGluR1, above 500 nM.
Consider `O=S(=O)(c1ccc(Cl)cc1)c1cnc2c(Cl)cccc2c1-c1ccc(Cl)c(Cl)c1` [Compound 184], for which the Ki on rat mGluR5 and at rat mGluR1 was above 500 nM each time.
On to `O=S(=O)(c1ccc(Cl)cc1)c1cnc2c(Cl)ccc(Cl)c2c1-c1cccc(Cl)c1` [Compound 185], for which the Ki at rat mGluR5 and on rat mGluR1 was above 500 nM each time.
Regarding `N#Cc1cc(F)cc(S(=O)(=O)c2cnc3cc(Cl)ccc3c2-c2ccc(F)cc2)c1` [Compound 186, 7-chloro-3-(3-cyano-5-fluoro-benzenesulfonyl)-4-(4-fluoro-phenyl)-quinoline], the inhibition constant Ki on rat mGluR5 is below 200 nM; at rat mGluR1, above 500 nM.
The matching figures for `O=S(=O)(c1ccc(Cl)s1)c1cnc2cc(Cl)ccc2c1-c1ccc(F)cc1` [Compound 187]: 200 to 500 nM and above 500 nM.
With `O=S(=O)(c1ccc(Cl)c(F)c1)c1cnc2cc(F)c(Cl)cc2c1-c1cccc(F)c1` [Compound 188], the Ki on rat mGluR5 is 200 to 500 nM; at rat mGluR1 it was above 500 nM.
As for `O=S(=O)(c1ccc(Cl)c(F)c1)c1cnc2cc(F)c(Cl)cc2c1-c1ccc(Cl)cc1` [Compound 189], the inhibition constant (Ki) on rat mGluR5 was below 200 nM; on rat mGluR1, above 500 nM.
`O=S(=O)(c1ccc(Cl)c(F)c1)c1cnc2cc(F)c(Cl)cc2c1-c1ccc(F)cc1` [Compound 190]: the Ki at rat mGluR5 is below 200 nM; on rat mGluR1, above 500 nM.
For the molecule `N#Cc1cccc(S(=O)(=O)c2cnc3cc(C#N)ccc3c2-c2ccc(Cl)cc2)c1` [Compound 191], the inhibition constant Ki on rat mGluR5 is 200 to 500 nM; on rat mGluR1, above 500 nM.
For the molecule `N#Cc1ccc2c(-c3ccc(F)cc3)c(S(=O)(=O)c3ccc(F)c(F)c3)cnc2c1` [Compound 192], the Ki at rat mGluR5 and on rat mGluR1 was above 500 nM each time.
`N#Cc1cccc(S(=O)(=O)c2cnc3cc(C#N)ccc3c2-c2ccc(F)cc2)c1` [Compound 193]: the Ki on rat mGluR5 is 200 to 500 nM; at rat mGluR1, above 500 nM.
The matching figures for `O=S(=O)(c1ccc(F)c(Cl)c1)c1cnc2cc(F)c(Cl)cc2c1-c1ccccc1F` [Compound 194]: above 500 nM and above 500 nM.
In the case of `N#Cc1ccc2c(-c3ccccc3F)c(S(=O)(=O)c3ccc(F)c(Cl)c3)cnc2c1` [Compound 195], the inhibition constant Ki was below 200 nM at rat mGluR5 and above 500 nM at rat mGluR1.

Broadly, the Ki is a measure of affinity in units of concentration, obtained from inhibition or displacement.
